In ChEMBL document CHEMBL6134779, “Design of Proteolytic-Resistant Antifungal Peptides by Utilizing Minimum d-Amino Acid Ratios” (J Med Chem, 2024):
Values after ≈ are worked out from the molar mass of the structure shown. Active and inactive are the calls of the source. No cut-off for these calls is given here.

Columns and labels:
Candida albicans [1] = test: Antifungal activity against Candida albicans CGMCC 2.2086 assessed as inhibition of fungal growth incubated for 48 hrs; assay type: functional
Candida albicans [2] = test: Antifungal activity against Candida albicans 14936 assessed as inhibition of fungal growth incubated for 48 hrs; assay type: functional
Candida parapsilosis = test: Antifungal activity against Candida parapsilosis CGMCC 2.3989 assessed as inhibition of fungal growth incubated for 48 hrs; assay type: functional; conditions: Lodderomyces parapsilosis
[3] = Cytotoxicity against porcine IPEC-J2 cells assessed as reduction in cell viability at 128 uM incubated for 4 hrs by MTT assay; assay type: toxicity, cell-based, Sus scrofa; conditions: pig, ipec-j2, 4 h
Candida albicans [4] = test: Antifungal activity against Candida albicans CGMCC 2.2086 assessed as inhibition of fungal growth incubated for 48 hrs in presence of KCl; assay type: functional
[5] = Stability of the compound in KCl assessed as change in secondary structure by CD spectra analysis; assay type: physicochemical
[6] = Stability of the compound in CaCl2 assessed as change in secondary structure by CD spectra analysis; assay type: physicochemical
Candida albicans [7] = test: Ratio of MIC95 for antifungal activity against Candida albicans CGMCC 2.2086 in presence of MgCl2 to MIC95 for MIC95 for antifungal activity against Candida albicans CGMCC 2.2086; assay type: functional
[8] = Proteolytic stability of the compound assessed as trypsin (unknown origin)-mediated drug degradation measured after 8 hrs by 16.5% tricine-SDS-PAGE analysis; assay type: ADME; conditions: human
[9] = Proteolytic stability of the compound assessed as trypsin (unknown origin)-mediated drug degradation measured after 8 hrs by RP-HPLC analysis; assay type: ADME; conditions: human
Cell membrane = test: Disruption of Candida albicans CGMCC 2.2086 cell membrane at 1X MIC measured after 1 hr by SYTO9/propidium iodide staining based fluorescence microscopic analysis; assay type: subcellular
Candida albicans [10] = test: Induction of morphological changes in Candida albicans CGMCC 2.2086 assessed as appearance of cell wrinkles at 1X MIC measured after 60 mins by SEM analysis; assay type: functional, organism-based
Candida albicans [11] = test: Induction of morphological changes in Candida albicans CGMCC 2.2086 assessed as separation of cell wall from plasma membrane at 1X MIC measured after 60 mins by TEM analysis; assay type: functional, organism-based
Candida albicans [12] = test: Fungicidal activity against Candida albicans CGMCC 2.2086 at 1X MIC measured within 90 mins by time-kill assay; assay type: functional, organism-based
Candida albicans [13] = test: Antifungal activity against Candida albicans CGMCC 2.2086 infected in C57BL/6 mouse keratitis model assessed as reduction in fungal cell count at 5 mg/ml administered as 10 uL eye drop every 5 mins for first 1 hr and every 30 mins for next 7 hrs relative to control; assay type: functional; parameters: scale not given: the % may be the effect or the level left; conditions: route ou, time 8 hrs
Candida albicans [14] = test: Antifungal activity against Candida albicans CGMCC 2.2086 infected in C57BL/6 mouse keratitis model assessed as increase in ocular clarity at 5 mg/ml administered as 10 uL eye drop every 5 mins for first 1 hr and every 30 mins for next 7 hrs; assay type: functional, organism-based; conditions: route ou, time 8.0 hrs
Candida albicans [15] = test: Antifungal activity against Candida albicans CGMCC 2.2086 infected in C57BL/6 mouse keratitis model assessed as reduction in mycelia in the eyes at 5 mg/ml administered as 10 uL eye drop every 5 mins for first 1 hr and every 30 mins for next 7 hrs by Schiff staining based assay; assay type: functional, organism-based; conditions: route ou, time 8.0 hrs

SMILES: CC[C@H](C)[C@H](N)C(=O)N[C@H](C(=O)N[C@H](CCCNC(=N)N)C(=O)N[C@@H](CCCNC(=N)N)C(=O)N[C@@H](Cc1c[nH]cn1)C(=O)N[C@H](C(=O)N[C@H](C(=O)N[C@H](C(=O)N[C@H](C(=O)N[C@H](CCCNC(=N)N)C(=O)N[C@@H](CCCNC(=N)N)C(=O)N[C@@H](Cc1c[nH]cn1)C(=O)N[C@H](C(=O)N[C@H](C(=O)N[C@H](C(=O)N[C@H](C(=O)N[C@H](CCCNC(=N)N)C(=O)N[C@@H](CCCNC(=N)N)C(=O)N[C@@H](Cc1c[nH]cn1)C(=O)N[C@H](C(=O)N[C@H](C(N)=O)[C@@H](C)CC)[C@@H](C)CC)[C@@H](C)CC)[C@@H](C)CC)[C@@H](C)CC)[C@@H](C)CC)[C@@H](C)CC)[C@@H](C)CC)[C@@H](C)CC)[C@@H](C)CC)[C@@H](C)CC
- MIC95 (Candida albicans [1]): 4 µM (≈ 10.9 µg/mL)
- MIC95 (Candida albicans [2]): 4 µM (≈ 10.9 µg/mL)
- MIC95 (Candida parapsilosis): 4 µM (≈ 10.9 µg/mL)
- Activity [3]: Toxic
- MIC95 (Candida albicans [4]): 4 µM
- Stability [5]: Stable
- Stability [6]: Stable
- Ratio (Candida albicans [7]): 4
- Stability [8]: Stable
- Stability [9]: Stable
- Activity (Cell membrane): Active
- Activity (Candida albicans [10]): Active
- Activity (Candida albicans [11]): Active
- Activity (Candida albicans [12]): Active; Eliminated All Fungal Organisms
- Activity (Candida albicans [13]): >65%
- Activity (Candida albicans [14]): Active
- Activity (Candida albicans [15]): Active; Mycelia In The Eyes Was Either Absent Or Minimal
